Experiments:
[1] = target: human TLR8 (Homo sapiens (Human), UniProt Q9NR97); test: HEK293-Blue-hTLR-8 cells assay; type: cell-based; conditions: HEK293-Blue-hTLR8 cells, R848 stimulation, 20 hrs, SEAP reporter; read-out: HEK/hTLR8 IC50
Excerpt: (§1) A stable HEK293-Blue-hTLR-8 cell line was purchased from InvivoGen (Cat. #: hkb-htlr8, San Diego, Calif., USA). These cells were originally designed for studying the stimulation of human TLR8 by monitoring the activation of NF-κB. A SEAP (secreted embryonic alkaline phosphatase) reporter gene was placed under the control of the IFN-β minimal promoter fused to five NF-κB and AP-1-binding sites. The SEAP was induced by activating NF-κB and AP-1 via stimulating HEK-Blue hTLR8 cells with TLR8 ligands. Therefore the reporter expression was declined by TLR8 antagonist under the stimulation of a ligand, such as R848, for incubation of 20 hrs. The cell culture supernatant SEAP reporter activity was determined using QUANTI-Blue™ kit (Cat. #: rep-gb1, Invivogen, San Diego, Ca, USA) at a wavelength of 640 nm, a detection medium that turns purple or blue in the presence of alkaline phosphatase.
(§2) HEK293-Blue-hTLR8 cells were incubated at a density of 250,000˜450,000 cells/mL in a volume of 170 μL in a 96-well plate in Dulbecco's Modified Eagle's medium (DMEM) containing 4.5 g/L glucose, 50 U/mL penicillin, […], […], 2 mM L-glutamine, 10% (v/v) heat-inactivated fetal bovine serum with addition of 20 μL test compound in a serial dilution in the presence of final DMSO at 1% and 10 μL of 60 uM R848 in above DMEM, perform incubation under 37° C. in a CO2 incubator for 20 hrs. Then 20 μL of the supernatant from each well was incubated with 180 μL Quanti-blue substrate solution at 37° C. for 2 hrs and the absorbance was read at 620655 nm using a spectrophotometer. The signaling pathway that TLR8 activation leads to downstream NF-κB activation has been widely accepted, and therefore similar reporter assay was modified for evaluating TLR8 antagonist.

[2] = Human microsome stability assay; type: in vitro ADME; conditions: human liver microsomes, 1 μM test compound, 37° C., NADPH regenerating system
Procedure: The human microsomal stability assay is used for early assessment of metabolic stability of a test compound in human liver microsomes.
Human liver microsomes (Cat. NO.: 452117, Corning, USA; Cat. NO.: H2610, Xenotech, USA) were preincubated with test compound for 10 minutes at 37° C. in 100 mM potassium phosphate buffer, pH 7.4. The reactions were initiated by adding NADPH regenerating system. The final incubation mixtures contained 1 μM test compound, 0.5 mg/mL liver microsomal protein, 1 mM MgCl2, 1 mM NADP, 1 unit/mL isocitric dehydrogenase and 6 mM isocitric acid in 100 mM potassium phosphate buffer, pH 7.4. After incubation times of 0, 3, 6, 9, 15 and 30 minutes at 37° C., 300 μL of cold acetonitrile (including internal standard) was added to 100 μL incubation mixture to terminate the reaction. Following precipitation and centrifugation, the amount of compound remaining in the samples were determined by LC-MS/MS. Controls of no NADPH regenerating system at zero and 30 minutes were also prepared and analyzed.

[3] = target: human TLR7 (Homo sapiens (Human), UniProt Q9NYK1); test: HEK293-Blue-hTLR-7 cells assay; type: cell-based; conditions: HEK293-Blue-hTLR7 cells, R848 stimulation, 20 hrs, SEAP reporter; read-out: HEK/hTLR7 IC50
Sequence of human TLR7 (Q9NYK1 27-1049): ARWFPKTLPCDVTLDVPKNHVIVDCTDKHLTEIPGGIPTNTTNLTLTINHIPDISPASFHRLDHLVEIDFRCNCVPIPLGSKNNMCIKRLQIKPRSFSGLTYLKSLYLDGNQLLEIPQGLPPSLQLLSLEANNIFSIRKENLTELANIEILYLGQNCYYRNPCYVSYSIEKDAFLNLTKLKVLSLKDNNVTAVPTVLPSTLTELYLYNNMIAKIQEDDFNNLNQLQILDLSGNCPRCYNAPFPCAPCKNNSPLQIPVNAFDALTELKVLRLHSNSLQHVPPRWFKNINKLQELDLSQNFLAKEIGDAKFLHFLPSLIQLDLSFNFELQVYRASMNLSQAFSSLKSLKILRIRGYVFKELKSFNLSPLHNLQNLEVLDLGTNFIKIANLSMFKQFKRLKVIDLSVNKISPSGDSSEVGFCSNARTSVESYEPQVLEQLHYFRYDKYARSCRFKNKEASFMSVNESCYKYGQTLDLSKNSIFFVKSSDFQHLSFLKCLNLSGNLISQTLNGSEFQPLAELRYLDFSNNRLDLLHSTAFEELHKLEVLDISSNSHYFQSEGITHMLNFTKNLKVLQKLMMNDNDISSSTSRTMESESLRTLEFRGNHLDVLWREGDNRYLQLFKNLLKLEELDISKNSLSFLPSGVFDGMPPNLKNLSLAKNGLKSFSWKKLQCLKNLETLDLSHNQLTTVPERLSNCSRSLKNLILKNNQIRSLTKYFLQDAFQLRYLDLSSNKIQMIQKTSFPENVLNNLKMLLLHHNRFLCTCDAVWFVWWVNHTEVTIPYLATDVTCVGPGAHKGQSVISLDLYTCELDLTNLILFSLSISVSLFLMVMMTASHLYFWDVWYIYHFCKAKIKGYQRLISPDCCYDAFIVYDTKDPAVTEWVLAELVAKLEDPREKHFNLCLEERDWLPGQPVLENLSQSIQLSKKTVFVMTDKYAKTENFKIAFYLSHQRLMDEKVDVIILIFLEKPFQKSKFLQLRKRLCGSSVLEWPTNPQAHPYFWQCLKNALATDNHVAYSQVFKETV
Excerpt: as §1, with “HEK293-Blue-hTLR-7” for “HEK293-Blue-hTLR-8”, “hkb-htlr7,” for “hkb-htlr8,”, “TLR7” for “TLR8”, “hTLR7” for “hTLR8”, “R848 (Resiquimod),” for “R848,”, “rep-qb1,” for “rep-gb1,”
as §2, with “HEK293-Blue-hTLR7” for “HEK293-Blue-hTLR8”, “20” for “60”, “620-655” for “620655”, “TLR7” for “TLR8”

[4] = target: TLR9 (Homo sapiens (Human), UniProt Q9NR96); test: HEK293-Blue-hTLR-9 cells assay; type: cell-based; conditions: HEK293-Blue-hTLR9 cells, ODN2006 stimulation, 20 hrs, SEAP reporter; read-out: HEK/hTLR9 IC50
Sequence of TLR9 (Q9NR96 26-1032): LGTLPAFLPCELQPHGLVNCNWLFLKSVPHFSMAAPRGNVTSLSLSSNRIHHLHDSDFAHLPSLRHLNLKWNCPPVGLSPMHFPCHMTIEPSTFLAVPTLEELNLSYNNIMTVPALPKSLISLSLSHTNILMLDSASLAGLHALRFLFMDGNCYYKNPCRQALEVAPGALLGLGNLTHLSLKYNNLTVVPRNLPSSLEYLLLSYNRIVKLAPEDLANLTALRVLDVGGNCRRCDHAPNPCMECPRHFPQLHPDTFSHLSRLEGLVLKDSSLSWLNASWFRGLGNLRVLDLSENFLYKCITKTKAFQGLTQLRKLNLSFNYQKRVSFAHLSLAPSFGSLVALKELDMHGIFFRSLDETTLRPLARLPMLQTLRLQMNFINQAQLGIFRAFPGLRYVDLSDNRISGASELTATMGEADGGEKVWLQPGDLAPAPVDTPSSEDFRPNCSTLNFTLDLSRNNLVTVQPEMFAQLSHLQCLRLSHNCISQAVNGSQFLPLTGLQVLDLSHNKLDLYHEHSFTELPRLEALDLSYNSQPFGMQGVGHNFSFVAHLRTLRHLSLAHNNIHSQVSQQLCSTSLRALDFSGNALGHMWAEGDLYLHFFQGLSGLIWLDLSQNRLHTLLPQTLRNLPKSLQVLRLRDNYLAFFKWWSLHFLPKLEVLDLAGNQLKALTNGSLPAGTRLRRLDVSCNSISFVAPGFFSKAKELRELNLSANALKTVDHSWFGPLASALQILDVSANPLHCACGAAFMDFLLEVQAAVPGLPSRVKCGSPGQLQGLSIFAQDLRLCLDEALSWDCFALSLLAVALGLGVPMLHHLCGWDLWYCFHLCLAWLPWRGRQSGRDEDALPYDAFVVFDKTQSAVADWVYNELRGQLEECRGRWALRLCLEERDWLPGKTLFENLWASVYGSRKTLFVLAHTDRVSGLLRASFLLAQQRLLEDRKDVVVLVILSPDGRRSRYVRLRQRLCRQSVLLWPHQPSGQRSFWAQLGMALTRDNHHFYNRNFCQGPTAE
Excerpt: A stable HEK293-Blue-hTLR-9 cell line was purchased from InvivoGen (Cat. #: hkb-htlr9, San Diego, Calif., USA). These cells were originally designed for studying the stimulation of human TLR9 by monitoring the activation of NF-κB. A SEAP (secreted embryonic alkaline phosphatase) reporter gene was placed under the control of the IFN-β minimal promoter fused to five NF-κB and AP-1-binding sites. The SEAP was induced by activating NF-κB and AP-1 via stimulating HEK-Blue hTLR9 cells with TLR9 ligands. Therefore the reporter expression was declined by TLR9 antagonist under the stimulation of a ligand, such as ODN2006 (Cat. #: tlr1-2006-1, Invivogen, San Diego, Calif., USA), for incubation of 20 hrs. The cell culture supernatant SEAP reporter activity was determined using QUANTI-Blue™ kit (Cat. #: rep-qb1, Invivogen, San Diego, Calif., USA) at a wavelength of 640 nm, a detection medium that turns purple or blue in the presence of alkaline phosphatase.
HEK293-Blue-hTLR9 cells were incubated at a density of 250,000˜450,000 cells/mL in a volume of 170 μL in a 96-well plate in Dulbecco's Modified Eagle's medium (DMEM) containing 4.5 g/L glucose, 50 U/mL penicillin, […], 2 mM L-glutamine, 10% (v/v) heat-inactivated fetal bovine serum with addition of 20 μL test compound in a serial dilution in the presence of final DMSO at 1% and 10 μL, of 20 uM ODN2006 in above DMEM, perform incubation under 37° C. in a CO2 incubator for 20 hrs. Then 20 μL of the supernatant from each well was incubated with 180 μL, Quanti-blue substrate solution at 37° C. for 2 h and the absorbance was read at 620655 nm using a spectrophotometer. The signaling pathway that TLR9 activation leads to downstream NF-κB activation has been widely accepted, and therefore similar reporter assay was modified for evaluating TLR9 antagonist.

Sequence of human TLR8 (Q9NR97 27-1041): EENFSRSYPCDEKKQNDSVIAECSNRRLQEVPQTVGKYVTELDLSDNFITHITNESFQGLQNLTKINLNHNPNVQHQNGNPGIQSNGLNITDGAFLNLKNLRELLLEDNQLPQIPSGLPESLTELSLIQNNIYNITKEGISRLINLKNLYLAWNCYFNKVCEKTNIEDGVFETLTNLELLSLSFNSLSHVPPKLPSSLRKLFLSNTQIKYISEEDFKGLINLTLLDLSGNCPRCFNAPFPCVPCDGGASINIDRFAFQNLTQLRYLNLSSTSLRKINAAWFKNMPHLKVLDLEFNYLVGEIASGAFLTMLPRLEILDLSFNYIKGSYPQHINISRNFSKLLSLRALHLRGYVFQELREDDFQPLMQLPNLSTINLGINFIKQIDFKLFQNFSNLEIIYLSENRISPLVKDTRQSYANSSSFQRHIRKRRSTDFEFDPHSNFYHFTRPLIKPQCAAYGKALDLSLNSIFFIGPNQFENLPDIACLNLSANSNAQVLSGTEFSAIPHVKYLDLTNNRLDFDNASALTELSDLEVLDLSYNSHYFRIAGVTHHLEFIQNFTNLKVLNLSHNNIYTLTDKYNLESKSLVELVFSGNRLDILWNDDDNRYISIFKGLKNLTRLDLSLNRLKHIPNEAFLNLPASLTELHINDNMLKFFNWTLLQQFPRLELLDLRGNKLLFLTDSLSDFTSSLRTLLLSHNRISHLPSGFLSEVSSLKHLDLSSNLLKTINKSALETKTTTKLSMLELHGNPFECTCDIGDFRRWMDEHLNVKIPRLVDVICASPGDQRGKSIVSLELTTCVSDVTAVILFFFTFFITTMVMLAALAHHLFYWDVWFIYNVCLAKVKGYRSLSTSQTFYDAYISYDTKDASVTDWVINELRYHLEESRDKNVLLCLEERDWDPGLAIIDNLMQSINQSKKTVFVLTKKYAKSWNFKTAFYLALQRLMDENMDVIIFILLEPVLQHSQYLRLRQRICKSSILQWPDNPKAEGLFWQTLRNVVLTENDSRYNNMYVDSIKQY

| IC50 [1] | Clearance of Human microsome [2] | IC50 [3] | IC50 [4] | Compound |
| --- | --- | --- | --- | --- |
| 1.3 nM | 9.06 mL/min/kg | 1.4 nM | 292 nM | Cc1cc(-c2ccc(N3CCC(N)CC3)nc2C(C)C)cn2ccnc12 [Example 1, 1-[6-isopropyl-5-(8-methylimidazo[1,2-a]pyridin-6-yl)-2-pyridyl]piperidin-4-amine] |
| 27 nM |  | 13.6 nM | 269 nM | Cc1cn2cc(-c3ccc(N4CCC5(CC4)COCCN5)nc3C(C)C)cc(C)c2n1 [Example 6, 9-[5-(2,8-dimethylimidazo[1,2-a]pyridin-6-yl)-6-isopropyl-2-pyridyl]-4-oxa-1,9-diazaspiro[5.5]undecane] |
| 28.4 nM | 9.16 mL/min/kg | 7.4 nM | 293 nM | COc1cc(-c2ccc(N3CCC4(CCNCC4)CC3)nc2C(F)F)cn2ccnc12 [Example 13, 3-[6-(difluoromethyl)-5-(8-methoxyimidazo[1,2-a]pyridin-6-yl)-2-pyridyl]-3,9-diazaspiro[5.5]undecane] |
| 15.7 nM | 9.54 mL/min/kg | 6.2 nM | 111 nM | CCc1nc(N2CCC(N3CC4(CNCCO4)C3)CC2)ccc1-c1cc(C)c2nc(C)cn2c1 [Example 16, 2-[1-[5-(2,8-dimethylimidazo[1,2-a]pyridin-6-yl)-6-ethyl-2-pyridyl]-4-piperidyl]-5-oxa-2,8-diazaspiro[3.5]nonane] |
| 28.8 nM |  | 22.4 nM | 255 nM | CCc1nc(N2CCN(C(=O)C3CNCCO3)CC2)ccc1-c1cc(C)c2nc(C)cn2c1 (centres unmarked) [Example 18, [4-[5-(2,8-dimethylimidazo[1,2-a]pyridin-6-yl)-6-ethyl-2-pyridyl]piperazin-1-yl]-morpholin-2-yl-methanone] |
| 1.3 nM |  | 43.5 nM | 131 nM | CCc1nc(N2CCN(c3ncc4c(n3)CNCC4)CC2)ccc1-c1cc(C)c2nc(C)cn2c1 [Example 19, 2-[4-[5-(2,8-dimethylimidazo[1,2-a]pyridin-6-yl)-6-ethyl-2-pyridyl]piperazin-1-yl]-5,6,7,8-tetrahydropyrido[3,4-d]pyrimidine] |
| 8.1 nM |  | 6.4 nM | 118 nM | Cc1cc(-c2ccc(N3CCC(N4CCNCC4)CC3)nc2N(C)C)cn2ccnc12 [Example 23, N,N-dimethyl-3-(8-methylimidazo[1,2-a]pyridin-6-yl)-6-(4-piperazin-1-yl-1-piperidyl)pyridin-2-amine] |
| 4 nM |  | 20.1 nM | 107 nM | CO[C@@H]1CN(C2CCN(c3ccc(-c4cc(C)c5nccn5c4)c(N(C)C)n3)CC2)C[C@H]1N [Example 24, 6-[4-[(3R,4R)-3-amino-4-methoxy-pyrrolidin-1-yl]-1-piperidyl]-N,N-dimethyl-3-(8-methylimidazo[1,2-a]pyridin-6-yl)pyridin-2-amine] |
| 1 nM | 8.69 mL/min/kg | 7.4 nM | 229 nM | CCc1nc(N2CCC(N3C[C@@H](N)[C@H](OC)C3)CC2)ncc1-c1cc(C)c2nccn2c1 [Example 26, (3R,4R)-1-[1-[4-ethyl-5-(8-methylimidazo[1,2-a]pyridin-6-yl)pyrimidin-2-yl]-4-piperidyl]-4-methoxy-pyrrolidin-3-amine] |
| 4.6 nM | 7.75 mL/min/kg | 3.3 nM | 259 nM | CCc1nc(N2CCC(N3CCNCC3)CC2)ncc1-c1cc(C)c2nccn2c1 [Example 27, 6-[4-ethyl-2-(4-piperazin-1-yl-1-piperidyl)pyrimidin-5-yl]-8-methyl-imidazo[1,2-a]pyridine] |
| 1.3 nM |  | 15.3 nM | 159 nM | CCc1nc(N2CCC(N3CC4(CNCCO4)C3)CC2)ncc1-c1cc(C)c2nccn2c1 [Example 28, 2-[1-[4-ethyl-5-(8-methylimidazo[1,2-a]pyridin-6-yl)pyrimidin-2-yl]-4-piperidyl]-5-oxa-2,8-diazaspiro[3.5]nonane] |
